Assay [1] is described as follows: Odor of permanently waved hair strands, rinse-off method (base: hair-cure agent). Particulars: rinse-off hair-cure agent, 5-min contact, table head 0.01 wt. % (text b103: 0.1 wt. %), each symbol = one test strand; for Odor rating vs blank, Day 1, pH 2-3 / Odor rating vs blank, Day 1, pH 4-5: Day 1, wet; for Odor rating vs blank, Day 2, pH 2-3 / Odor rating vs blank, Day 2, pH 4-5: Day 2, dry; for Odor rating vs blank, Day 3, pH 2-3 / Odor rating vs blank, Day 3, pH 4-5: Day 3, wet; for Odor rating vs blank, Day 4, pH 2-3 / Odor rating vs blank, Day 4, pH 4-5: Day 4, dry.

Assay [2] in a line: Odor of permanently waved hair strands, leave-on method (base: conditioner). Particulars: for Odor rating vs blank, Day 1, pH 2-3 / Odor rating vs blank, Day 1, pH 4-5 / Odor rating vs blank, Day 2, pH 2-3 / Odor rating vs blank, Day 2, pH 4-5 / Odor rating vs blank, Day 3, pH 2-3 / Odor rating vs blank, Day 3, pH 4-5 / Odor rating vs blank, Day 4, pH 2-3 / Odor rating vs blank, Day 4, pH 4-5: test substance 0.01 wt. %; for Odor rating vs blank, Day 1, pH 2-3 / Odor rating vs blank, Day 1, pH 4-5: Day 1, wet; for Odor rating vs blank, Day 1, pH 2-3 / Odor rating vs blank, Day 2, pH 2-3 / Odor rating vs blank, Day 3, pH 2-3 / Odor rating vs blank, Day 4, pH 2-3: pH 2-3, each symbol = one test strand; for Odor rating vs blank, Day 1, pH 4-5 / Odor rating vs blank, Day 2, pH 4-5 / Odor rating vs blank, Day 3, pH 4-5 / Odor rating vs blank, Day 4, pH 4-5: pH 4-5, each symbol = one test strand; for Odor rating vs blank, Day 2, pH 2-3 / Odor rating vs blank, Day 2, pH 4-5: Day 2, dry; for Odor rating vs blank, Day 3, pH 2-3 / Odor rating vs blank, Day 3, pH 4-5: Day 3, wet; for Odor rating vs blank, Day 4, pH 2-3 / Odor rating vs blank, Day 4, pH 4-5: Day 4, dry. Here is the method:
The test substances were tested on hair that had been freshly permanently waved. To this end, hair braids were cut into 2.5-cm pieces, bleached for 30 minutes and washed with perfume-free shampoo. To obtain fully odorless strands, the strands were then dipped three times into a mixture of isopropanol 25%/ethanol 25%/water 50%. The hair was kept for 24 hours in a conditioning room (20° C. at 85% relative humidity) and then cut to a weight of 2 g. This was followed by an odor test. Ten strands per post-treatment agent to be tested were wound onto rollers (diameter: 13 mm) and kept overnight in the conditioning room (20° C. at 85% relative humidity). The next morning, these strands were subjected to permanent waving.
Ten rollers holding 2 g of hair each were placed in a crystallizing dish and covered twice with 20 g of a commercial wave lotion, the rollers being turned over after the first 20 g to ensure uniform distribution. The rollers were then placed in a drier at 40° C. for 15 min, after which they were rinsed with water for 5 minutes namely for 2 min under running city water and for an additional 3 min by immersing them in water. The hair was then dabbed dry with a paper napkin. Afterward, the fixation was carried out with the aid of a commercial foam fixative. To this end, the rollers were immersed for 3 min in 500 mL of fixing solution. Excess fixing solution was then poured off, and the rollers were allowed to stand for an additional 7 minutes. They were then again rinsed with water for 5 min (see above) and dabbed dry with a paper napkin. Finally, the hair was detached from the roller and placed in a drier at 40° C. for 60 minutes.
To test the efficacy of the compounds as permanent wave post-treatment agents, the zinc salts and the corresponding zinc-free acids alone were incorporated at two different pH values into common cosmetic product bases. Zinc citrate (trizinc dicitrate) made soluble with a slight excess of citric acid was tested as the reference substance for a zinc salt without the odor-influencing counterion. The oxocarboxylic acids were used both as the sodium salts and in the form of their zinc salts. The pH values were then adjusted with citric acid or NaOH.
In the following example, 0.5 mL of a leave-on conditioner was massaged into the freshly permanently waved hair (2 g in each case), and after a contact time of 10 min the odor was evaluated by five test subjects (Table 1). In each case, the odor evaluation was performed on 3 test strands. The average values of the evaluation results are tabulated.
Each symbol stands for one test strand. • ◯=odor indistinguishable from that of blank • +=odor better than that of blank • ++=odor appreciably better than that of blank/odorless

A short description of assay [3]: Various odor tests carried out on permanently waved hair (general statements). The following applies: sulfur odor of permanently waved hair; general statement.

Experimental findings from US20080299062A1, “Use of Oxocarboxylic Acids-Containing Combinations for Deodorization” (priority 2004, published 2008) are described below.

Regarding `O=CC(=O)[O-].[Na+]` [Na glyoxylate], in assay [1], the “Odor rating vs blank, Day 1, pH 2-3” value is on record as “∘ ∘ ∘”; the “Odor rating vs blank, Day 1, pH 4-5” value is “∘ ∘ ∘”; the “Odor rating vs blank, Day 2, pH 2-3” value was “+ ∘ +”; the “Odor rating vs blank, Day 2, pH 4-5” value is given as “+ ∘ +”. Further, in assay [1], the “Odor rating vs blank, Day 3, pH 2-3” value is on record as “∘ ∘ +”; the “Odor rating vs blank, Day 3, pH 4-5” value is “+ + ∘”; the “Odor rating vs blank, Day 4, pH 2-3” value is recorded as “∘ + +”; the “Odor rating vs blank, Day 4, pH 4-5” value is recorded as “∘ + +”. Further, in assay [2], the “Odor rating vs blank, Day 1, pH 2-3” value was “∘ + +”; the “Odor rating vs blank, Day 1, pH 4-5” value is reported as “∘ + ∘”; the “Odor rating vs blank, Day 2, pH 2-3” value is on record as “+ + ∘”; the “Odor rating vs blank, Day 2, pH 4-5” value is recorded as “+ + ∘”. Also, in assay [2], the “Odor rating vs blank, Day 3, pH 2-3” value was “∘ ∘ +”; the “Odor rating vs blank, Day 3, pH 4-5” value is listed as “∘ + +”; the “Odor rating vs blank, Day 4, pH 2-3” value is reported as “∘ + +”; the “Odor rating vs blank, Day 4, pH 4-5” value is on record as “+ ∘ +”.

As for `CC(=O)CCC(=O)[O-].[Na+]` [Na levulinate], in assay [1], the “Odor rating vs blank, Day 1, pH 2-3” value is reported as “+ + +”; the “Odor rating vs blank, Day 1, pH 4-5” value was “+ ∘ +”; the “Odor rating vs blank, Day 2, pH 2-3” value is given as “+ + ∘”; the “Odor rating vs blank, Day 2, pH 4-5” value was “+ ∘ ∘”. Besides, in assay [1], the “Odor rating vs blank, Day 3, pH 2-3” value is listed as “∘ + +”; the “Odor rating vs blank, Day 3, pH 4-5” value is listed as “+ ∘ ∘”; the “Odor rating vs blank, Day 4, pH 2-3” value is on record as “∘ ∘ +”; the “Odor rating vs blank, Day 4, pH 4-5” value was “+ ∘ ∘”. In addition, in assay [2], the “Odor rating vs blank, Day 1, pH 2-3” value is given as “+ + +”; the “Odor rating vs blank, Day 1, pH 4-5” value was “+ ∘ +”; the “Odor rating vs blank, Day 2, pH 2-3” value is “+ + +”; the “Odor rating vs blank, Day 2, pH 4-5” value is listed as “+ ∘ +”. In assay [2], the “Odor rating vs blank, Day 3, pH 2-3” value was “∘ + +”; the “Odor rating vs blank, Day 3, pH 4-5” value was “+ + ∘”; the “Odor rating vs blank, Day 4, pH 2-3” value is listed as “+ + +”; the “Odor rating vs blank, Day 4, pH 4-5” value was “+ + +”.

Turning to `CC(=O)C(=O)[O-].[Na+]` [Na pyruvate], in assay [1], the “Odor rating vs blank, Day 1, pH 2-3” value is given as “∘∘ +”; the “Odor rating vs blank, Day 1, pH 4-5” value is given as “∘ + +”; the “Odor rating vs blank, Day 2, pH 2-3” value is “∘ + +”; the “Odor rating vs blank, Day 2, pH 4-5” value is reported as “∘ + +”. In assay [1], the “Odor rating vs blank, Day 3, pH 2-3” value was “∘ + +”; the “Odor rating vs blank, Day 3, pH 4-5” value is recorded as “∘ + +”; the “Odor rating vs blank, Day 4, pH 2-3” value is on record as “∘ + +”; the “Odor rating vs blank, Day 4, pH 4-5” value is listed as “∘ + +”. In assay [2], the “Odor rating vs blank, Day 1, pH 2-3” value is “+ ∘ +”; the “Odor rating vs blank, Day 1, pH 4-5” value is “∘ ∘ +”; the “Odor rating vs blank, Day 2, pH 2-3” value is “∘ + ∘”; the “Odor rating vs blank, Day 2, pH 4-5” value was “∘ + ∘”. In addition, in assay [2], the “Odor rating vs blank, Day 3, pH 2-3” value is listed as “∘ + +”; the “Odor rating vs blank, Day 3, pH 4-5” value is listed as “∘ + +”; the “Odor rating vs blank, Day 4, pH 2-3” value is given as “∘ + +”; the “Odor rating vs blank, Day 4, pH 4-5” value is reported as “+ + ∘”.

Take `O=C([O-])CC(O)(CC(=O)[O-])C(=O)[O-].O=C([O-])CC(O)(CC(=O)[O-])C(=O)[O-].[Zn+2].[Zn+2].[Zn+2]` [Trizinc dicitrate, trizinc dicitrate]: in assay [1], the “Odor rating vs blank, Day 1, pH 2-3” value was “∘ ∘ ∘”; the “Odor rating vs blank, Day 1, pH 4-5” value is on record as “∘ ∘ +”; the “Odor rating vs blank, Day 2, pH 2-3” value is listed as “+ ∘ ∘”; the “Odor rating vs blank, Day 2, pH 4-5” value is listed as “∘ + +”. Besides, in assay [1], the “Odor rating vs blank, Day 3, pH 2-3” value is given as “∘ ∘ +”; the “Odor rating vs blank, Day 3, pH 4-5” value was “∘ + +”; the “Odor rating vs blank, Day 4, pH 2-3” value is listed as “∘ ∘ +”; the “Odor rating vs blank, Day 4, pH 4-5” value is listed as “∘ + +”. In addition, in assay [2], the “Odor rating vs blank, Day 1, pH 2-3” value is recorded as “+ ∘ ∘”; the “Odor rating vs blank, Day 1, pH 4-5” value is given as “∘ + +”; the “Odor rating vs blank, Day 2, pH 2-3” value was “∘ + ∘”; the “Odor rating vs blank, Day 2, pH 4-5” value is recorded as “∘ + +”. In assay [2], the “Odor rating vs blank, Day 3, pH 2-3” value is “∘ ∘ +”; the “Odor rating vs blank, Day 3, pH 4-5” value is given as “∘ + +”; the “Odor rating vs blank, Day 4, pH 2-3” value is “∘ + ∘”; the “Odor rating vs blank, Day 4, pH 4-5” value was “+ + +”.

Turning to `O=CC(=O)[O-].O=CC(=O)[O-].[Zn+2]` [Zn glyoxylate], in assay [1], the “Odor rating vs blank, Day 1, pH 2-3” value is on record as “∘ ∘ ∘”; the “Odor rating vs blank, Day 1, pH 4-5” value is on record as “∘ + +”; the “Odor rating vs blank, Day 2, pH 2-3” value is listed as “∘ ∘ ∘”; the “Odor rating vs blank, Day 2, pH 4-5” value was “+ ∘ +”. In addition, in assay [1], the “Odor rating vs blank, Day 3, pH 2-3” value was “∘ ∘ +”; the “Odor rating vs blank, Day 3, pH 4-5” value was “+ + ∘”; the “Odor rating vs blank, Day 4, pH 2-3” value is “∘ ∘ +”; the “Odor rating vs blank, Day 4, pH 4-5” value is recorded as “∘ + +”. Moreover, in assay [2], the “Odor rating vs blank, Day 1, pH 2-3” value was “∘ + +”; the “Odor rating vs blank, Day 1, pH 4-5” value is “+ ∘ ∘”; the “Odor rating vs blank, Day 2, pH 2-3” value is listed as “∘ ∘ ∘”; the “Odor rating vs blank, Day 2, pH 4-5” value was “∘ + +”. In assay [2], the “Odor rating vs blank, Day 3, pH 2-3” value was “∘ ∘ +”; the “Odor rating vs blank, Day 3, pH 4-5” value was “+ ∘ +”; the “Odor rating vs blank, Day 4, pH 2-3” value is “∘ ∘ +”; the “Odor rating vs blank, Day 4, pH 4-5” value is reported as “+ + ∘”.

Consider `CC(=O)C(=O)[O-].CC(=O)C(=O)[O-].[Zn+2]` [Zn pyruvate], for which, in assay [1], the “Odor rating vs blank, Day 1, pH 2-3” value is listed as “∘ ∘ ∘”; the “Odor rating vs blank, Day 1, pH 4-5” value is reported as “∘ + ∘”; the “Odor rating vs blank, Day 2, pH 2-3” value was “∘ ∘ ∘”; the “Odor rating vs blank, Day 2, pH 4-5” value is reported as “+ ∘ +”. In assay [1], the “Odor rating vs blank, Day 3, pH 2-3” value is listed as “∘ ∘ ∘”; the “Odor rating vs blank, Day 3, pH 4-5” value is “∘ + +”; the “Odor rating vs blank, Day 4, pH 2-3” value is recorded as “∘ ∘ ∘”; the “Odor rating vs blank, Day 4, pH 4-5” value is “+ + +”. In assay [2], the “Odor rating vs blank, Day 1, pH 2-3” value was “∘ + ∘”; the “Odor rating vs blank, Day 1, pH 4-5” value is on record as “+ + +”; the “Odor rating vs blank, Day 2, pH 2-3” value is on record as “∘ ∘ ∘”; the “Odor rating vs blank, Day 2, pH 4-5” value is listed as “+ + +”. In assay [2], the “Odor rating vs blank, Day 3, pH 2-3” value was “∘ ∘ ∘”; the “Odor rating vs blank, Day 3, pH 4-5” value is given as “∘ + +”; the “Odor rating vs blank, Day 4, pH 2-3” value is given as “∘ ∘ ∘”; the “Odor rating vs blank, Day 4, pH 4-5” value is “+ + +”.

As for `CC(=O)CCC(=O)O` [levulinic acid, 4-oxopentanoic acid], the “odor-reducing effect on permanently waved hair, in words” value in assay [3] is “effective odor reducer”. In assay [2] (pH 2-3 and pH 4-5, summary of Table 1), the “odor-reducing action (efficacy), in words” value is “some odor-reducing action in strong acids”.
